PubChem BioAssay (NCI)
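Values below derive from 48-hour exposures of cells grown in 96-well plates, with endpoints linearly interpolated between the two concentrations bracketing the appropriate inhibition level. Definition used: TGI = concentration required for complete inhibition of growth.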

Tests used:
Experiment in all cases: DTP human tumour cell line panel, 48 h
TK-10 renal = system: TK-10 renal
MALME-3M melanoma = system: MALME-3M melanoma
CAKI-1 renal = system: CAKI-1 renal
EKVX NSCLC = system: EKVX NSCLC
OVCAR-5 ovarian = system: OVCAR-5 ovarian
SK-OV-3 ovarian = system: SK-OV-3 ovarian
A549 NSCLC = system: A549 NSCLC
DU-145 prostate = system: DU-145 prostate
MCF7 breast = system: MCF7 breast
HCT-116 colon = system: HCT-116 colon
SN12C renal = system: SN12C renal
MDA-MB-231 breast = system: MDA-MB-231 breast
SF-295 CNS = system: SF-295 CNS
MDA-MB-435 = system: MDA-MB-435
U251 CNS = system: U251 CNS
CCRF-CEM leukemia = system: CCRF-CEM leukemia
NCI-H522 lung = system: NCI-H522 lung
HCT-15 colon = system: HCT-15 colon
NCI-H226 lung = system: NCI-H226 lung
SK-MEL-2 melanoma = system: SK-MEL-2 melanoma
NCI/ADR-RES ovarian = system: NCI/ADR-RES ovarian
UACC-257 melanoma = system: UACC-257 melanoma
786-0 renal = system: 786-0 renal
K-562 leukemia = system: K-562 leukemia
HOP-92 NSCLC = system: HOP-92 NSCLC
KM12 colon = system: KM12 colon
UO-31 renal = system: UO-31 renal
SNB-19 CNS = system: SNB-19 CNS
SF-539 CNS = system: SF-539 CNS
PC-3 prostate = system: PC-3 prostate
M14 melanoma = system: M14 melanoma
HS 578T breast = system: HS 578T breast
OVCAR-3 ovarian = system: OVCAR-3 ovarian
T-47D breast = system: T-47D breast
ACHN renal = system: ACHN renal
SF-268 CNS = system: SF-268 CNS
A498 renal = system: A498 renal
IGROV1 ovarian = system: IGROV1 ovarian
COLO 205 colon = system: COLO 205 colon
MOLT-4 leukemia = system: MOLT-4 leukemia
HOP-62 NSCLC = system: HOP-62 NSCLC
MDA-N = system: MDA-N
NCI-H460 lung = system: NCI-H460 lung
NCI-H23 lung = system: NCI-H23 lung
SK-MEL-5 melanoma = system: SK-MEL-5 melanoma
HT29 colon = system: HT29 colon
SR leukemia = system: SR leukemia
HCC-2998 colon = system: HCC-2998 colon
RPMI-8226 leukemia = system: RPMI-8226 leukemia
UACC-62 melanoma = system: UACC-62 melanoma
BT-549 breast = system: BT-549 breast
OVCAR-8 ovarian = system: OVCAR-8 ovarian
LOX IMVI melanoma = system: LOX IMVI melanoma
HL-60(TB) leukemia = system: HL-60(TB) leukemia
SW-620 colon = system: SW-620 colon
RXF 393 renal = system: RXF 393 renal
SNB-75 CNS = system: SNB-75 CNS
OVCAR-4 ovarian = system: OVCAR-4 ovarian
SK-MEL-28 melanoma = system: SK-MEL-28 melanoma

SMILES: C/C(=N\O)c1ccc(Nc2nc3ccccc3c3occc23)cc1
- TGI (TK-10 renal): 7.63 µM
- TGI (MALME-3M melanoma): 61.3 µM
- TGI (CAKI-1 renal): 7.28 µM
- TGI (EKVX NSCLC): > 100 µM
- TGI (OVCAR-5 ovarian): > 100 µM
- TGI (SK-OV-3 ovarian): 57.4 µM
- TGI (A549 NSCLC): 34.8 µM
- TGI (DU-145 prostate): 35.6 µM
- TGI (MCF7 breast): 14.8 µM
- TGI (HCT-116 colon): 18 µM
- TGI (SN12C renal): 56.3 µM
- TGI (MDA-MB-231 breast): 8.22 µM
- TGI (SF-295 CNS): 11.1 µM
- TGI (MDA-MB-435): 44.9 µM
- TGI (U251 CNS): > 100 µM
- TGI (CCRF-CEM leukemia): 27.7 µM
- TGI (NCI-H522 lung): 9.47 µM
- TGI (HCT-15 colon): 7.77 µM
- TGI (NCI-H226 lung): 10.8 µM
- TGI (SK-MEL-2 melanoma): 51.5 µM
- TGI (NCI/ADR-RES ovarian): 47.8 µM
- TGI (UACC-257 melanoma): 48.2 µM
- TGI (786-0 renal): 9.93 µM
- TGI (K-562 leukemia): 6.04 µM
- TGI (HOP-92 NSCLC): 52.4 µM
- TGI (KM12 colon): 20.8 µM
- TGI (UO-31 renal): > 100 µM
- TGI (SNB-19 CNS): > 100 µM
- TGI (SF-539 CNS): 37.1 µM
- TGI (PC-3 prostate): 50.7 µM
- TGI (M14 melanoma): 22.4 µM
- TGI (HS 578T breast): 53.3 µM
- TGI (OVCAR-3 ovarian): > 100 µM
- TGI (T-47D breast): 32.7 µM
- TGI (ACHN renal): 47.7 µM
- TGI (SF-268 CNS): 39.9 µM
- TGI (A498 renal): 37.8 µM
- TGI (IGROV1 ovarian): 29.6 µM
- TGI (COLO 205 colon): 20 µM
- TGI (MOLT-4 leukemia): 13.6 µM
- TGI (HOP-62 NSCLC): 27 µM
- TGI (MDA-N): 96.6 µM
- TGI (NCI-H460 lung): 4.34 µM
- TGI (NCI-H23 lung): 62.4 µM
- TGI (SK-MEL-5 melanoma): 35.1 µM
- TGI (HT29 colon): 2.68 µM
- TGI (SR leukemia): 5.07 µM
- TGI (HCC-2998 colon): 20.8 µM
- TGI (RPMI-8226 leukemia): 6.62 µM
- TGI (UACC-62 melanoma): 61 µM
- TGI (BT-549 breast): 53.1 µM
- TGI (OVCAR-8 ovarian): 54.7 µM
- TGI (LOX IMVI melanoma): 32.8 µM
- TGI (HL-60(TB) leukemia): 8.49 µM

SMILES: CSc1ncc2c(n1)-c1ccccc1OC2N1CCCCC1 (configuration not stated)
- TGI (TK-10 renal): 73.2 µM
- TGI (SW-620 colon): > 100 µM
- TGI (CAKI-1 renal): 66.3 µM
- TGI (EKVX NSCLC): > 100 µM
- TGI (OVCAR-5 ovarian): > 100 µM
- TGI (SK-OV-3 ovarian): > 100 µM
- TGI (A549 NSCLC): > 100 µM
- TGI (DU-145 prostate): > 100 µM
- TGI (RXF 393 renal): > 100 µM
- TGI (MCF7 breast): 87.6 µM
- TGI (HCT-116 colon): > 100 µM
- TGI (SN12C renal): > 100 µM
- TGI (MDA-MB-231 breast): > 100 µM
- TGI (SF-295 CNS): > 100 µM
- TGI (MDA-MB-435): 87.2 µM
- TGI (U251 CNS): > 100 µM
- TGI (CCRF-CEM leukemia): 49.8 µM
- TGI (NCI-H522 lung): 42.3 µM
- TGI (HCT-15 colon): 84.5 µM
- TGI (NCI-H226 lung): > 100 µM
- TGI (SK-MEL-2 melanoma): 96.6 µM
- TGI (NCI/ADR-RES ovarian): > 100 µM
- TGI (UACC-257 melanoma): > 100 µM
- TGI (786-0 renal): > 100 µM
- TGI (K-562 leukemia): > 100 µM
- TGI (HOP-92 NSCLC): 84.2 µM
- TGI (KM12 colon): > 100 µM
- TGI (UO-31 renal): > 100 µM
- TGI (SNB-19 CNS): > 100 µM
- TGI (SF-539 CNS): > 100 µM
- TGI (PC-3 prostate): > 100 µM
- TGI (M14 melanoma): > 100 µM
- TGI (HS 578T breast): 99.2 µM
- TGI (OVCAR-3 ovarian): > 100 µM
- TGI (T-47D breast): 68.2 µM
- TGI (ACHN renal): > 100 µM
- TGI (SF-268 CNS): > 100 µM
- TGI (A498 renal): 49.9 µM
- TGI (IGROV1 ovarian): > 100 µM
- TGI (COLO 205 colon): > 100 µM
- TGI (MOLT-4 leukemia): 58 µM
- TGI (SNB-75 CNS): > 100 µM
- TGI (MDA-N): > 100 µM
- TGI (NCI-H460 lung): > 100 µM
- TGI (OVCAR-4 ovarian): > 100 µM
- TGI (NCI-H23 lung): > 100 µM
- TGI (SK-MEL-5 melanoma): 45.8 µM
- TGI (HT29 colon): > 100 µM
- TGI (SR leukemia): 53.2 µM
- TGI (RPMI-8226 leukemia): 65.9 µM
- TGI (UACC-62 melanoma): > 100 µM
- TGI (BT-549 breast): 86.2 µM
- TGI (OVCAR-8 ovarian): > 100 µM
- TGI (LOX IMVI melanoma): 46.7 µM
- TGI (HL-60(TB) leukemia): 49 µM

SMILES: O=[N+]([O-])c1ccccc1S(=O)(=O)c1cc(O)cc2c1NCCC2
- TGI (TK-10 renal): 36.7 µM
- TGI (SW-620 colon): 32.6 µM
- TGI (MALME-3M melanoma): 37.9 µM
- TGI (CAKI-1 renal): 63.3 µM
- TGI (EKVX NSCLC): 30.7 µM
- TGI (OVCAR-5 ovarian): 40 µM
- TGI (SK-OV-3 ovarian): > 31.6 µM
- TGI (A549 NSCLC): > 85.9 µM
- TGI (DU-145 prostate): 35.7 µM
- TGI (RXF 393 renal): 31.7 µM
- TGI (MCF7 breast): 29.8 µM
- TGI (HCT-116 colon): 20.9 µM
- TGI (SN12C renal): 41.5 µM
- TGI (MDA-MB-231 breast): 32.4 µM
- TGI (SF-295 CNS): > 59.1 µM
- TGI (MDA-MB-435): 41.4 µM
- TGI (U251 CNS): 40.1 µM
- TGI (CCRF-CEM leukemia): 5.6 µM
- TGI (NCI-H522 lung): 24.5 µM
- TGI (HCT-15 colon): 44.4 µM
- TGI (NCI-H226 lung): 62.8 µM
- TGI (SK-MEL-2 melanoma): 51.7 µM
- TGI (NCI/ADR-RES ovarian): > 79.3 µM
- TGI (UACC-257 melanoma): 26.8 µM
- TGI (SK-MEL-28 melanoma): 33.9 µM
- TGI (786-0 renal): 25.9 µM
- TGI (K-562 leukemia): 7.54 µM
- TGI (HOP-92 NSCLC): 16.8 µM
- TGI (KM12 colon): 34.3 µM
- TGI (UO-31 renal): 29.8 µM
- TGI (SNB-19 CNS): 65.6 µM
- TGI (SF-539 CNS): 34.8 µM
- TGI (PC-3 prostate): 28.7 µM
- TGI (M14 melanoma): 30.8 µM
- TGI (HS 578T breast): > 86.7 µM
- TGI (OVCAR-3 ovarian): 18.1 µM
- TGI (T-47D breast): 24.1 µM
- TGI (ACHN renal): 27.4 µM
- TGI (SF-268 CNS): 42.6 µM
- TGI (A498 renal): 18.4 µM
- TGI (IGROV1 ovarian): 30.8 µM
- TGI (COLO 205 colon): 34.3 µM
- TGI (MOLT-4 leukemia): 13.6 µM
- TGI (SNB-75 CNS): 33.5 µM
- TGI (HOP-62 NSCLC): 40.3 µM
- TGI (MDA-N): 38.8 µM
- TGI (NCI-H460 lung): 53 µM
- TGI (OVCAR-4 ovarian): 29.3 µM
- TGI (NCI-H23 lung): 49 µM
- TGI (SK-MEL-5 melanoma): 27.1 µM
- TGI (HT29 colon): 40.9 µM
- TGI (SR leukemia): 5.37 µM
- TGI (HCC-2998 colon): 51.1 µM
- TGI (UACC-62 melanoma): 28.9 µM
- TGI (BT-549 breast): 26.3 µM
- TGI (OVCAR-8 ovarian): 41.6 µM
- TGI (LOX IMVI melanoma): 38.4 µM
- TGI (HL-60(TB) leukemia): > 23 µM
